Assays:
[1] = test system: HIV-1 L100I mutant strain; test: Anti-HIV assay against L100I mutant strain in MT-4 cells; type: cell-based; conditions: Human immunodeficiency virus 1, MT4, read-out: EC50 L100I
Method: (§2) Evaluation of the antiviral activity of the compounds against HIV in MT-4 cells was performed using the MTT assay as previously described [24, 25]. […] Prior to use in our assays, every freshly grown virus stock was the subject of a genotypic analysis. In addition to the genotypic analysis, every stock was subject to a phenotypic analysis using a panel of relevant reference compounds in MT-4 cells. […] Stock solutions (10× final concentration) of test compounds were added in 25 μL volumes to two series of triplicate wells so as to allow simultaneous evaluation of their effects on mock- and HIV-infected cells at the beginning of each experiment. Serial 5-fold dilutions of test compounds were made directly in flat-bottomed 96-well microtiter trays using a Biomek 3000 robot (Beckman instruments, Fullerton, CA). Untreated HIV- and mock-infected cell samples were included as controls. HIV stock (50 μL) at 100–300 CCID50 (50% cell culture infectious doses) and culture medium (final 200 μL volume per well) were added to either the infected or mock-infected wells of the microtiter tray. Mock-infected cells were used to evaluate the effects of test compounds on uninfected cells in order to assess the cytotoxicity of the test compounds. Exponentially growing MT-4 cells were centrifuged for 5 min at 220× g and the supernatant was discarded. The MT-4 cells were resuspended at 6 × 10^5 cells/mL and 50 μL volumes were transferred to the microtiter tray wells. Five days after infection, the viability of mock- and HIV-infected cells was examined spectrophotometrically using the MTT assay. The MTT assay is based on the reduction of yellow colored 3-(4,5-dimethylthiazol-2-yl)-2,5-diphenyltetrazolium bromide (MTT) (Acros Organics, Geel, Belgium) by mitochondrial dehydrogenase activity in metabolically active cells to a blue-purple formazan that can be measured spectrophotometrically. The absorbances were read in an eight-channel computer-controlled photometer (Infinite M1000, Tecan, Männedorf, Switzerland) at two wavelengths (540 and 690 nm). All data were calculated using the median absorbance value of three wells.

[2] = test system: HIV-1 E138K mutant strain; test: Anti-HIV assay against E138K mutant strain in MT-4 cells; type: cell-based; conditions: Human immunodeficiency virus 1, MT4, read-out: EC50 E138K
Method: as §2

[3] = test system: HIV-1 F227L + V106A mutant strain; test: Anti-HIV assay against double mutant F227L + V106A in MT-4 cells; type: cell-based; conditions: Human immunodeficiency virus 1, MT4, read-out: EC50 F227L + V106A
Method: as §2

[4] = test system: HIV-1 K103N + Y181C mutant strain; test: Anti-HIV assay against double mutant K103N + Y181C in MT-4 cells; type: cell-based; conditions: Human immunodeficiency virus 1, MT4, read-out: EC50 K103N + Y181C
Method: as §2

[5] = Cytotoxicity in mock-infected MT-4 cells, MTT method; conditions: human, mock-infected (uninfected) MT-4 cells
Method: (§1) Untreated HIV- and mock-infected cell samples were included as controls. […] Five days after infection, the viability of mock- and HIV-infected cells was examined spectrophotometrically using the MTT assay. […] All data were calculated using the median absorbance value of three wells.

[6] = test system: MT-4 cells; test: as above; conditions: MT-4 cells; relative to RPV CC50
Method: as §1

[7] = test system: HIV-1 K103N mutant strain; test: Anti-HIV assay against K103N mutant strain in MT-4 cells; type: cell-based; conditions: Human immunodeficiency virus 1, MT4, read-out: EC50 K103N
Method: as §2

[8] = test system: HIV-1 Y181C mutant strain; test: Anti-HIV assay against Y181C mutant strain in MT-4 cells; type: cell-based; conditions: Human immunodeficiency virus 1, MT4, read-out: EC50 Y181C
Method: as §2

[9] = test system: HIV-1 IIIB; test: Anti-HIV assay against wild-type HIV-1 (IIIB) in MT-4 cells, MTT method; type: cell-based; conditions: for SI (selectivity index, ratio CC50/EC50 (WT)): CC50/EC50 WT HIV-1 IIIB, MT-4 cells; for EC50: Human immunodeficiency virus 1, IIIB, MT4, read-out: EC50 HIV-1 IIIB
Method: as §1

[10] = biological target: T1, WT HIV-1 RT (Human immunodeficiency virus type 1 group M subtype B, UniProt P03366); test: Reverse transcriptase assay (EnzCheck kit, PicoGreen); type: biochemical; conditions: recombinant wild type p66/p51 HIV-1 RT
T1 construct: Recombinant wild type p66/p51 HIV-1 RT; made in house
Method: The RT assay was performed with the EnzCheck Reverse Transcriptase Assay kit (Molecular Probes, Invitrogen), as described by the Manufacturer. The assay is based on the dsDNA quantitation reagent PicoGreen. […] This condition is met in the assay. A poly(rA) template of approximately 350 bases long and an oligo (dT)16 primer are annealed in a molar ratio of 1:1.2 (60 min at room temperature). Then, 52 ng of the RNA/DNA is brought into each well of a 96-well plate in a volume of 20 μL polymerization buffer (60 mM Tris-HCl, 60 mM KCl, 8 mM MgCl2, 13 mM DTT, 100 μM dTTP, pH 8.1). Then, 5 μL of RT enzyme solution, diluted to a suitable concentration in enzyme dilution buffer (50 mM Tris-HCl, 20% glycerol, 2 mM DTT, pH 7.6), is added. The reactions are incubated at 25 °C for 40 min and then stopped by the addition of EDTA (15 mM fc). Heteroduplexes are then detected by addition of PicoGreen. Signals are read using an excitation wavelength of 490 nm and emission detection at 523 nm using a spectrofluorometer (Safire 2, Tecan). To test the activity of compounds against RT, 1 μL of compound in DMSO was added to each well before the addition of RT enzyme solution. Control wells without compound contained the same amount of DMSO. Results are expressed as relative fluorescence, i.e., the fluorescence signal of the reaction mix with compound divided by the signal of the same reaction mix without compound.

## COc1cc(C#N)ccc1C(C#N)c1ccnc(Nc2ccc(C#N)cc2)n1 (centres unmarked) [Compound A5, 4-(4-(cyano-(2-methoxy-4-cyanophenyl)methyl)-pyrimidin-2-ylamino)benzonitrile]
[1]
  EC50: 4720 ± 790 nM
[2]
  EC50: 1630 ± 320 nM
[3]
  EC50: ≥ 12400 nM
[4]
  EC50: > 25800 nM
[5]
  CC50 at 5 days: 25800 ± 8700 nM
[6]
  CC50 fold higher than that of RPV: about 5 fold
[7]
  EC50: 680 ± 160 nM
[8]
  EC50: 1250 ± 580 nM
other
  melting point: 189.4 to 190.1 °C
[9]
  SI (selectivity index, ratio CC50/EC50 (WT)): 434
  EC50: 59 ± 11 nM
[9]; WT HIV-1 IIIB, relative to A4
  fold higher activity than the 3-substituted analogue (A4): 200 fold

## Cc1cnc(Nc2ccc(C#N)cc2)nc1C(C#N)c1ccc(C#N)cc1 (centres unmarked) [Compound B1, 4-(4-(cyano-(4-cyanophenyl)methyl)-5-methylpyrimidin-2-ylamino)benzonitrile]
[1]
  EC50: 8030 ± 4430 nM
[2]
  EC50: 4920 ± 300 nM
[3]
  EC50: ≥ 59000 nM
[10]
  IC50: 1460 ± 90 nM
[4]
  EC50: > 109000 nM
[5]
  CC50 at 5 days: 109000 ± 80000 nM
[7]
  EC50: 3950 ± 220 nM
[8]
  EC50: 7050 ± 960 nM
other
  melting point: 243.1 to 243.7 °C
[9]
  SI (selectivity index, ratio CC50/EC50 (WT)): 356
  EC50: 300 ± 110 nM

## Cc1cnc(Nc2ccc(C#N)cc2)nc1C(C#N)c1ccc(C#N)cc1Cl (centres unmarked) [Compound B3, 4-(4-(cyano-(2-chloro-4-cyanophenyl)methyl)-5-methylpyrimidin-2-ylamino)benzonitrile]
[1]
  EC50: 820 ± 150 nM
[2]
  EC50: 140 ± 30 nM
[3]
  EC50: 4040 ± 700 nM
[10]
  IC50: 50 ± 30 nM
[4]
  EC50: > 9560 nM
[5]
  CC50 at 5 days: 9600 ± 2700 nM
[7]
  EC50: 80 ± 20 nM
[8]
  EC50: 260 ± 20 nM
other
  melting point: 213.6 to 214.2 °C
[9]
  SI (selectivity index, ratio CC50/EC50 (WT)): 920
  EC50: 10 ± 10 nM

## Cc1cnc(Nc2ccc(C#N)cc2)nc1C(C#N)c1ccc(C#N)cc1Br (centres unmarked) [Compound B4, 4-(4-(cyano-(2-bromo-4-cyanophenyl)methyl)-5-methylpyrimidin-2-ylamino)benzonitrile]
[1]
  EC50: 510 ± 190 nM
[2]
  EC50: 110 ± 40 nM
[3]
  EC50: 2350 ± 180 nM
[10]
  IC50: 60 ± 30 nM
[4]
  EC50: > 6620 nM
[5]
  CC50 at 5 days: 6600 ± 1300 nM
[7]
  EC50: 80 ± 30 nM
[8]
  EC50: 160 ± 170 nM
[9]
  EC50: 6 ± 1 nM

## Cc1cnc(Nc2ccc(C#N)cc2)nc1C(C#N)c1ccc(C#N)c(Cl)c1C (centres unmarked) [Compound B5, 4-(4-(cyano-(2-methyl-3-chloro-4-cyanophenyl)methyl)-5-methylpyrimidin-2-ylamino)benzonitrile]
[1]
  EC50: 1820 ± 400 nM
[2]
  EC50: 600 ± 100 nM
[3]
  EC50: 1660 ± 270 nM
[10]
  IC50: 70 ± 20 nM
[4]
  EC50: > 8580 nM
[5]
  CC50 at 5 days: 8600 ± 2200 nM
[7]
  EC50: 390 ± 70 nM
[8]
  EC50: 1020 ± 200 nM
other
  melting point: 205.4 to 206.5 °C
[9]
  SI (selectivity index, ratio CC50/EC50 (WT)): 370
  EC50: 20 ± 8 nM

## Cc1cc(C#N)c(Br)cc1C(C#N)c1nc(Nc2ccc(C#N)cc2)ncc1C (centres unmarked) [Compound B6, 4-(4-(cyano-(2-methyl-5-bromo-4-cyanophenyl)methyl)-5-methylpyrimidin-2-ylamino)benzonitrile]
[1]
  EC50: 860 ± 190 nM
[2]
  EC50: 170 ± 60 nM
[3]
  EC50: 1520 ± 150 nM
[10]
  IC50: 60 ± 20 nM
[4]
  EC50: > 9790 nM
[5]
  CC50 at 5 days: 9800 ± 3500 nM
[7]
  EC50: 60 ± 10 nM
[8]
  EC50: 330 ± 100 nM
other
  melting point: 232.3 to 233.9 °C
[9]
  SI (selectivity index, ratio CC50/EC50 (WT)): 1215
  EC50: 8 ± 4 nM
